Measurements from patent US11203574B2 (BioCryst Pharmaceuticals, Inc., priority 2014, dated 2021).

What follows are compounds tested against human plasma kallikrein (Homo sapiens (Human), UniProt P03952) (assay: Plasma kallikrein activity assay (chromogenic substrate S2302)). Conditions: 2 nM kallikrein, 80 μM S2302, 30° C., pH 7.8; Ki by Cheng-Prusoff equation; values given as ranges; read-out: Ki.
Assay type: biochemical

Sequence of human plasma kallikrein (P03952 whole entry, looked up): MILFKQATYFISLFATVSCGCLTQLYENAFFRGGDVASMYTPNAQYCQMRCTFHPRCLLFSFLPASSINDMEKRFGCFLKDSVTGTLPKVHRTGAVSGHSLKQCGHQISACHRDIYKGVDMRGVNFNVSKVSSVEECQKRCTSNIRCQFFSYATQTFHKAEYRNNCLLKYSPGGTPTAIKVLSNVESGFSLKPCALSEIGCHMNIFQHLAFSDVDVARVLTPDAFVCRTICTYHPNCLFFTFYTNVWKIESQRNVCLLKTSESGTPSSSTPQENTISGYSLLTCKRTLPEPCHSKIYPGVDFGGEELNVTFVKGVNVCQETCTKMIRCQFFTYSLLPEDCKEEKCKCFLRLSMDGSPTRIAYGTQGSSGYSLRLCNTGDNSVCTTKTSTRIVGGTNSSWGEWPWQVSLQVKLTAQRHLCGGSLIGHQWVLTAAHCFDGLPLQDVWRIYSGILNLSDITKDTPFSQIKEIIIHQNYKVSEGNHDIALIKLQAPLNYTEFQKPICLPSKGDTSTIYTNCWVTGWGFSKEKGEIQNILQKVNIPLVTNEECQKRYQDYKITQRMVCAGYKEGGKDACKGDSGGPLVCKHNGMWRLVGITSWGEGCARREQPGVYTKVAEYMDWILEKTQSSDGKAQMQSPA
Sequence of human plasma kallikrein (P03952 whole entry partner, looked up): as the sequence (P03952 whole entry, looked up) above

Question: How did the Ki turn out when `NCc1cccc(-n2nc(C(F)(F)F)cc2C(=O)Nc2cccc(C(NCC3CC3)c3cccc4ccccc34)c2)c1` (centres unmarked) [129f, 1-(3-(aminomethyl)phenyl)-N-(3-((cyclopropylmethylamino)(naphthalen-1-yl)methyl)phenyl)-3-(trifluoromethyl)-1H-pyrazole-5-carboxamide] was run?
Answer: 0.1 to 50 nM

Question: `N#Cc1ccc(C(N)(CCC2CC2)c2ccc(F)c(NC(=O)c3cc(C(F)(F)F)nn3-c3ccc4ccnc(N)c4c3)c2)cc1` (single isomer, unassigned; (+)) [254c, (+)-N-(5-(1-amino-1-(4-cyanophenyl)-3-cyclopropylpropyl)-2-fluorophenyl)-1-(1-aminoisoquinolin-7-yl)-3-(trifluoromethyl)-1H-pyrazole-5-carboxamide] was tested. Which Ki did it give?
Answer: 0.1 to 50 nM

Question: For `NCc1cccc(-n2nc(C(F)(F)F)cc2C(=O)Nc2cc(C(NCC3CC3)c3cccc(N)c3)ccc2F)c1` (centres unmarked) [131b, 1-(3-(aminomethyl)phenyl)-N-(5-((3-aminophenyl)(cyclopropylmethylamino)methyl)-2-fluorophenyl)-3-(trifluoromethyl)-1H-pyrazole-5-carboxamide], which Ki is on record?
Answer: 0.1 to 50 nM

Question: With `NCc1cccc(-n2nc(C(F)(F)F)cc2C(=O)Nc2cccc(C(OCC3CC3)c3ccccn3)c2)c1` (single isomer, unassigned; (+)) [43h, (+)-1-(3-(aminomethyl)phenyl)-N-(3-((cyclopropylmethoxy)(pyridin-2-yl)methyl)-phenyl)-3-(trifluoromethyl)-1H-pyrazole-5-carboxamide] as the compound, how does the Ki read?
Answer: 0.1 to 50 nM

Question: With `NCc1cccc(-n2nc(C(F)(F)F)cc2C(=O)Nc2cccc(C(OCC3CC3)c3cccc(N)c3)c2)c1` (single isomer, unassigned; (-)) [64a, (−)-1-(3-(aminomethyl)phenyl)-N-(3-((3-aminophenyl)(cyclopropyl-methoxy)methyl)phenyl)-3-(trifluoromethyl)-1H-pyrazole-5-carboxamide] as the compound, how does the Ki read?
Answer: 0.1 to 50 nM

Question: With `NCc1cccc(-n2nc(C(F)(F)F)cc2C(=O)Nc2cccc(C(NCC3CC3)c3cccc(O)c3O)c2)c1` (centres unmarked) [150f, 1-(3-(aminomethyl)phenyl)-N-(3-((cyclopropylmethylamino)(2,3-dihydroxyphenyl)methyl)phenyl)-3-(trifluoromethyl)-1H-pyrazole-5-carboxamide] as the compound, how does the Ki read?
Answer: 0.1 to 50 nM

Question: `Cn1cc(C(NCC2CC2)c2cccc(NC(=O)c3cc(C(F)(F)F)nn3-c3cccc(CN)c3)c2)cn1` (centres unmarked) [104f, 1-(3-(aminomethyl)phenyl)-N-(3-((cyclopropylmethylamino)(1-methyl-1H-pyrazol-4-yl)methyl)phenyl)-3-(trifluoromethyl)-1H-pyrazole-5-carboxamide] was tested. Which Ki did it give?
Answer: 0.1 to 50 nM

Question: `NCc1cccc(-n2nc(C(F)(F)F)cc2C(=O)Nc2cccc(C(CCC3CC3)N3CCCC3=O)c2)c1` (centres unmarked) [247e, 1-(3-(aminomethyl)phenyl)-N-(3-(3-cyclopropyl-1-(2-oxopyrrolidin-1-yl)propyl)phenyl)-3-(trifluoromethyl)-1H-pyrazole-5-carboxamide] was tested. Which Ki did it give?
Answer: 0.1 to 50 nM

Question: `COc1ccc(C(NCC2CC2)c2cccc(NC(=O)c3cc(C(F)(F)F)nn3-c3cccc(CN)c3)c2)cc1` (centres unmarked) [105g, 1-(3-(Aminomethyl)phenyl)-N-(3-(((cyclopropylmethyl)amino)(4-methoxyphenyl)methyl)phenyl)-3-(trifluoromethyl)-1H-pyrazole-5-carboxamide] was tested. Which Ki did it give?
Answer: 0.1 to 50 nM

Question: `CCCOC(c1ccccc1)c1cccc(NC(=O)c2cc(C(F)(F)F)nn2-c2cccc(CN)c2)c1` (centres unmarked) [18h, 1-(3-(aminomethyl)phenyl)-N-(3-(phenyl(propoxy)methyl)phenyl)-3-(trifluoromethyl)-1H-pyrazole-5-carboxamide] was tested. Which Ki did it give?
Answer: 50 to 100 nM

Question: Which Ki does the source give for `NCc1cccc(-n2nc(C(F)(F)F)cc2C(=O)Nc2cc(C(NCC3CC3)c3ccc(C(N)=O)cc3)ccc2F)c1` (centres unmarked) [153b, 1-(3-(aminomethyl)phenyl)-N-(5-((4-carbamoylphenyl)(cyclopropylmethyl-amino)methyl)-2-fluorophenyl)-3-(trifluoromethyl)-1H-pyrazole-5-carboxamide] here?
Answer: 0.1 to 50 nM

Question: With `NCc1cccc(-n2nc(C(F)(F)F)cc2C(=O)Nc2cccc(C(NCC3CC3)c3c(F)cccc3F)c2)c1` (centres unmarked) [198f, 1-(3-(aminomethyl)phenyl)-N-(3-(((cyclopropylmethyl)amino)(2,6-difluorophenyl)methyl)phenyl)-3-(trifluoromethyl)-1H-pyrazole-5-carboxamide] as the compound, how does the Ki read?
Answer: 0.1 to 50 nM

Question: How did the Ki turn out when `Cc1ccc(C(NCC2CC2)c2cccc(NC(=O)c3cc(C(F)(F)F)nn3-c3cccc(CN)c3)c2)cc1` (centres unmarked) [122g, 1-(3-(aminomethyl)phenyl)-N-(3-(((cyclopropylmethyl)amino)(p-tolyl)methyl)phenyl)-3-(trifluoromethyl)-1H-pyrazole-5-carboxamide] was run?
Answer: 0.1 to 50 nM

Question: How did the Ki turn out when `CC(C)(C)C(=O)NC(CCC1CC1)(c1cccnc1)c1ccc(F)c(NC(=O)c2cc(C(F)(F)F)nn2-c2cccc(CN)c2)c1` (single isomer, unassigned; (-)) [244g, (−)-1-(3-(aminomethyl)phenyl)-N-(5-(3-cyclopropyl-1-pivalamido-1-(pyridin-3-yl)propyl)-2-fluorophenyl)-3-(trifluoromethyl)-1H-pyrazole-5-carboxamide] was run?
Answer: 0.1 to 50 nM

Question: For `NCc1cccc(-n2nc(C(F)(F)F)cc2C(=O)Nc2cc(C(CCC3CC3)N3C(=O)CCC3=O)ccc2F)c1` (centres unmarked) [260b, 1-(3-(aminomethyl)phenyl)-N-(5-(3-cyclopropyl-1-(2,5-dioxopyrrolidin-1-yl)propyl)-2-fluorophenyl)-3-(trifluoromethyl)-1H-pyrazole-5-carboxamide], which Ki is on record?
Answer: 0.1 to 50 nM

Question: Which Ki does the source give for `NCc1cccc(-n2nc(C(F)(F)F)cc2C(=O)Nc2cccc(C(O)(CCC3CC3)c3ccccn3)c2)c1` (centres unmarked) [45g, 1-(3-(aminomethyl)phenyl)-N-(3-(3-cyclopropyl-1-hydroxy-1-(pyridin-2-yl)propyl)phenyl)-3-(trifluoromethyl)-1H-pyrazole-5-carboxamide] here?
Answer: 0.1 to 50 nM

Question: Which Ki does the source give for `N#Cc1cccc(C(N)(CCC2CC2)c2ccc(F)c(NC(=O)c3cc(C(F)(F)F)nn3-c3cccc(CN)c3)c2)n1` (single isomer, unassigned; (+)) [220f, (+)-N-(5-(1-amino-1-(6-cyanopyridin-2-yl)-3-cyclopropylpropyl)-2-fluorophenyl)-1-(3-(aminomethyl)phenyl)-3-(trifluoromethyl)-1H-pyrazole-5-carboxamide] here?
Answer: 0.1 to 50 nM

Question: With `Cc1ccc(C(NCC2CC2)c2cccc(NC(=O)c3cc(C(F)(F)F)nn3-c3cccc(CN)c3)c2)c(C)c1` (centres unmarked) [201f, 1-(3-(aminomethyl)phenyl)-N-(3-(((cyclopropylmethyl)amino)(2,4-dimethylphenyl)methyl)phenyl)-3-(trifluoromethyl)-1H-pyrazole-5-carboxamide] as the compound, how does the Ki read?
Answer: 0.1 to 50 nM

Question: How did the Ki turn out when `NCc1cccc(-n2nc(C(F)(F)F)cc2C(=O)Nc2cc(C(CCC3CC3)n3ccncc3=O)ccc2F)c1` (centres unmarked) [249b, 1-(3-(aminomethyl)phenyl)-N-(5-(3-cyclopropyl-1-(2-oxopyrazin-1(2H)-yl)propyl)-2-fluorophenyl)-3-(trifluoromethyl)-1H-pyrazole-5-carboxamide] was run?
Answer: 0.1 to 50 nM

Question: How did the Ki turn out when `NCc1cccc(-n2nc(C(F)(F)F)cc2C(=O)Nc2cccc(C(CCC3CC3)n3ccnc3)c2)c1` (centres unmarked) [89g, 1-(3-(aminomethyl)phenyl)-N-(3-(3-cyclopropyl-1-(1H-imidazol-1-yl)propyl)phenyl)-3-(trifluoromethyl)-1H-pyrazole-5-carboxamide] was run?
Answer: 0.1 to 50 nM
